Patent US6737383B1, “Herbicidal oxadiazolidines” (priority 1999, dated 2004)

Legend:
[1] = system: morningglory; experiment: Test B pre/postemergence morningglory; assay type: in vivo, Ipomoea hederacea; settings: for Morningglory plant response rating (0 to 10 scale): 0 is no effect
In short: (§1)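 Test chemicals in a non-phytotoxic solvent mixture with surfactant were sprayed preemergence onto planted seeds and postemergence onto plants 2 to 18 cm tall (1- to 4-leaf stage). After twelve to sixteen days in a greenhouse, injury was visually rated against untreated controls from 0 (no effect) to 10 (complete control).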

[2] = system: rape; experiment: Test B pre/postemergence rape; assay type: in vivo, Brassica napus; settings: for Rape plant response rating (0 to 10 scale): 0 is no effect
In short: as §1

[3] = system: wheat; experiment: Test B pre/postemergence wheat; assay type: in vivo, Triticum aestivum
In short: as §1

[4] = system: duck salad; experiment: Test B flood test duck salad; assay type: in vivo, Heteranthera limosa
In short: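 Read-out is a visual response score from 0 (no effect) to 10 (complete control), assigned by comparison with untreated controls. Treatment was applied at the 2-leaf stage, and plants stayed in the greenhouse for twelve to sixteen days before scoring.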

[5] = system: winter wheat; experiment: Test E winter wheat; assay type: in vivo, Triticum aestivum; settings: Postemergence
In short: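 Greenhouse test: for postemergence, foliar application at 1- to 4-leaf stage; compound in non-phytotoxic solvent with surfactant. Rating is visual, relative to untreated controls, about 21 to 28 days after treatment.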

[6] = system: blackgrass; experiment: Test E blackgrass; assay type: in vivo, Alopecurus myosuroides; settings: Preemergence
[7] = system: green foxtail; experiment: Test E green foxtail; assay type: in vivo, Setaria viridis; settings: Preemergence
[8] = system: Italian ryegrass; experiment: Test E Italian ryegrass; assay type: in vivo, Lolium multiflorum; settings: Preemergence
[9] = system: winter wheat; experiment: Test E winter wheat; assay type: in vivo, Triticum aestivum; settings: Preemergence
[10] = system: wild oat; experiment: Test E wild oat; assay type: in vivo, Avena fatua; settings: Preemergence
[11] = system: winter barley; experiment: Test E winter barley; assay type: in vivo, Hordeum vulgare; settings: Preemergence
[12] = Postemergence, Rate 125 g/ha, scale of 0 to 10 where 0 is no effect and 10 is complete control
[13] = Postemergence, Rate 250 g/ha, scale 0 to 10, 0 no effect, 10 complete control
[14] = Preemergence, Rate 62 g/ha, scale 0 to 10 (0 no effect, 10 complete control)
[15] = Preemergence, Rate 125 g/ha, scale 0 to 10 (0 no effect, 10 complete control)
[16] = Preemergence, Rate 250 g/ha, scale of 0 to 10 where 0 is no effect and 10 is complete control
[17] = Preemergence, Rate 500 g/ha, scale 0 to 10 (0 no effect, 10 complete control)
[18] = Rate 62 g/ha, Postemergence, scale of 0 to 10 where 0 is no effect and 10 is complete control
[19] = Rate 500 g/ha, Postemergence, scale 0 to 10, 0 no effect, 10 complete control
[20] = Rate 500 g/ha, headed Pre-emergence (flood test species), scale 0 to 10 (0 no effect, 10 complete control)
[21] = Rate 500 g/ha, 0 to 100 scale where 0 is no effect and 100 is complete control
[22] = Preemergence, Rate 62 g/ha, scale of 0 to 10 where 0 is no effect and 10 is complete control
[23] = Preemergence, Rate 125 g/ha, 10 is complete control
[24] = Preemergence, Rate 250 g/ha, scale 0 to 10, 0 is no effect, 10 is complete control
[25] = Rate 125 g/ha, Postemergence, scale 0 to 10
[26] = Rate 500 g/ha, Postemergence, scale 0 to 10
[27] = Rate 125 g/ha, 0 to 100 scale (0 no effect, 100 complete control)
[28] = Preemergence, Rate 500 g/ha, scale of 0 to 10 where 0 is no effect and 10 is complete control
[29] = Rate 62 g/ha, 0 to 100 scale, 0 no effect, 100 complete control

CC(C)N(C(=O)n1oc(=O)n(C(C)(C)C)c1=O)c1ccc(Cl)cc1 [Compound 118]
Morningglory plant response rating [1, 12]: 4 | Morningglory plant response rating [1, 13]: 5 | Morningglory plant response rating [1, 14]: 0 | Plant response rating, Morningglory [1, 15]: 0 | Plant response rating, Morningglory [1, 16]: 0 | Morningglory plant response rating [1, 17]: 0 | Morningglory plant response rating [1, 18]: 1 | Morningglory plant response rating [1, 19]: 7 | Rape plant response rating [2, 12]: 0 | Rape plant response rating [2, 13]: 0 | Rape plant response rating [2, 14]: 0 | Plant response rating, Rape [2, 15]: 0 | Plant response rating, Rape [2, 16]: 0 | Rape plant response rating [2, 17]: 0 | Rape plant response rating [2, 18]: 0 | Rape plant response rating [2, 19]: 0 | Wheat plant response rating [3, 12]: 0 | Wheat plant response rating [3, 14]: 0 | Wheat plant response rating (0 to 10 scale) ([3]; Preemergence, Rate 125 g/ha, 0 is no effect, 10 is complete control): 0 | Plant response rating, Wheat [3, 16]: 0 | Wheat plant response rating [3, 17]: 0 | Wheat plant response rating [3, 18]: 0 | Plant response rating, Wheat ([3]; Rate 250 g/ha, Postemergence, scale 0 to 10, 0 is no effect, 10 is complete control): 0 | Wheat plant response rating [3, 19]: 2 | Ducksalad plant response rating ([4]; Rate 250 g/ha, headed Pre-emergence (flood test species), scale 0 to 10 (0 no effect, 10 complete control)): 0 | Plant response rating, Ducksalad [4, 20]: 0 | Ducksalad plant response rating ([4]; Rate 1000 g/ha, Pre-emergence (as headed), scale 0 to 10): 0 | Ducksalad plant response rating ([4]; Rate 2000 g/ha, Pre-emergence (as headed), scale 0 to 10): 0 | Plant response rating, Wheat (winter) ([5]; Rate 250 g/ha, 0 to 100 scale (0 no effect, 100 complete control)): 65 | Plant response rating, Wheat (winter) ([5]; Rate 500 g/ha, 0 to 100 scale, 0 no effect, 100 complete control): 70 | Plant response rating, Blackgrass ([6]; Rate 250 g/ha, 0 to 100 scale): 80 | Plant response rating, Blackgrass [6, 21]: 100 | Plant response rating, Green foxtail ([7]; Rate 250 g/ha, 0 to 100 scale): 55 | Plant response rating, Green foxtail [7, 21]: 65 | Plant response rating, I. Ryegrass ([8]; Rate 250 g/ha, 0 to 100 scale): 60 | Plant response rating, I. Ryegrass [8, 21]: 60 | Plant response rating, Wheat (winter) ([9]; Rate 250 g/ha, 0 to 100 scale): 50 | Plant response rating, Wheat (winter) [9, 21]: 70 | Plant response rating, Wild oat [10, 21]: 70 | Plant response rating, Barley (winter) ([11]; Rate 250 g/ha, 0 to 100 scale): 65 | Plant response rating, Barley (winter) [11, 21]: 50

Cc1nc(C)c(Cn2c(=O)on(C(=O)N(c3ccc(F)cc3)C(C)C)c2=O)s1 [Compound 192]
Morningglory plant response rating [1, 22]: 0 | Morningglory plant response rating (0 to 10 scale) [1, 23]: 0 | Morningglory plant response rating [1, 24]: 0 | Morningglory plant response rating [1, 17]: 3 | Morningglory plant response rating [1, 18]: 1 | Morningglory plant response rating [1, 25]: 3 | Plant response rating (0 to 10; 0 is no effect, 10 is complete control), Morningglory ([1]; Rate 250 g/ha, Postemergence): 6 | Morningglory plant response rating [1, 26]: 6 | Rape plant response rating [2, 22]: 0 | Rape plant response rating (0 to 10 scale) [2, 23]: 0 | Rape plant response rating [2, 24]: 4 | Rape plant response rating [2, 17]: 9 | Rape plant response rating [2, 18]: 0 | Rape plant response rating [2, 25]: 0 | Plant response rating (0 to 10; 0 is no effect, 10 is complete control), Rape ([2]; Rate 250 g/ha, Postemergence): 2 | Rape plant response rating [2, 26]: 2 | Wheat plant response rating [3, 22]: 0 | Wheat plant response rating [3, 24]: 0 | Wheat plant response rating [3, 17]: 0 | Wheat plant response rating [3, 18]: 0 | Wheat plant response rating [3, 25]: 0 | Plant response rating (0 to 10; 0 is no effect, 10 is complete control), Wheat ([3]; Rate 250 g/ha, Postemergence): 0 | Ducksalad plant response rating ([4]; Rate 62 g/ha, headed Pre-emergence (flood test species), scale 0 to 10 (0 no effect, 10 complete control)): 0 | Ducksalad plant response rating ([4]; Rate 125 g/ha, Pre-emergence, flood test species, scale 0 to 10 where 0 is no effect and 10 is complete control): 0 | Ducksalad plant response rating ([4]; Rate 250 g/ha, Pre-emergence, flood-test species, scale 0 to 10, 0 is no effect, 10 is complete control): 0 | Plant response rating, Ducksalad [4, 20]: 0 | Plant response rating, Wheat (winter) ([5]; Rate 125 g/ha, 0 to 100 scale): 30 | Plant response rating, Wheat (winter) ([5]; Rate 500 g/ha, 0 to 100 scale, 0 is no effect, 100 is complete control): 50 | Plant response rating, Blackgrass [6, 27]: 40 | Plant response rating, Blackgrass [6, 21]: 50 | Plant response rating, Green foxtail [7, 27]: 50 | Plant response rating, Green foxtail [7, 21]: 65 | Plant response rating, I. Ryegrass [8, 27]: 20 | Plant response rating, I. Ryegrass [8, 21]: 60 | Plant response rating, Wheat (winter) [9, 27]: 10 | Plant response rating, Wheat (winter) [9, 21]: 40 | Plant response rating, Wild oat [10, 27]: 30 | Plant response rating, Wild oat [10, 21]: 55 | Plant response rating, Barley (winter) [11, 27]: 20 | Plant response rating, Barley (winter) [11, 21]: 30

C=C(C)CCn1c(=O)on(C(=O)N(c2ccc(F)cc2)C(C)C)c1=O [Compound 199]
Morningglory plant response rating [1, 22]: 0 | Morningglory plant response rating (0 to 10 scale) [1, 23]: 0 | Morningglory plant response rating [1, 24]: 0 | Plant response rating, Morningglory [1, 28]: 0 | Morningglory plant response rating [1, 18]: 4 | Morningglory plant response rating [1, 25]: 4 | Plant response rating (0 to 10; 0 is no effect, 10 is complete control), Morningglory ([1]; Rate 250 g/ha, Postemergence): 4 | Morningglory plant response rating [1, 26]: 8 | Rape plant response rating [2, 22]: 0 | Rape plant response rating (0 to 10 scale) [2, 23]: 0 | Rape plant response rating [2, 24]: 0 | Plant response rating, Rape [2, 28]: 0 | Rape plant response rating [2, 18]: 0 | Rape plant response rating [2, 25]: 0 | Plant response rating (0 to 10; 0 is no effect, 10 is complete control), Rape ([2]; Rate 250 g/ha, Postemergence): 0 | Rape plant response rating [2, 26]: 0 | Wheat plant response rating [3, 22]: 0 | Wheat plant response rating [3, 24]: 0 | Plant response rating, Wheat [3, 28]: 0 | Wheat plant response rating [3, 18]: 0 | Wheat plant response rating [3, 25]: 2 | Plant response rating (0 to 10; 0 is no effect, 10 is complete control), Wheat ([3]; Rate 250 g/ha, Postemergence): 3 | Ducksalad plant response rating ([4]; Rate 62 g/ha, Postemergence section, flood test species, scale of 0 to 10 where 0 is no effect and 10 is complete control): 0 | Ducksalad plant response rating ([4]; Rate 125 g/ha, listed under Postemergence (flood test species), scale 0 to 10): 0 | Plant response rating (0 to 10; 0 is no effect, 10 is complete control), Ducksalad ([4]; Rate 250 g/ha, Postemergence section, flood test species): 0 | Ducksalad plant response rating ([4]; Rate 500 g/ha, listed under Postemergence (flood test species), scale 0 to 10): 2 | Plant response rating, Wheat (winter) ([5]; Rate 62 g/ha, 0 to 100 scale): 50 | Plant response rating, Wheat (winter) ([5]; Rate 125 g/ha, 0 to 100 scale): 55 | Plant response rating, Blackgrass [6, 29]: 60 | Plant response rating, Blackgrass [6, 27]: 65 | Blackgrass plant response rating (0 to 100 scale) ([6]; Rate 250 g/ha): 60 | Plant response rating, Green foxtail [7, 29]: 100 | Plant response rating, Green foxtail [7, 27]: 100 | Green foxtail plant response rating (0 to 100 scale) ([7]; Rate 250 g/ha): 100 | Plant response rating, I. Ryegrass [8, 29]: 70 | Plant response rating, I. Ryegrass [8, 27]: 60 | I. Ryegrass plant response rating (0 to 100 scale) ([8]; Rate 250 g/ha): 70 | Plant response rating, Wheat (winter) [9, 29]: 60 | Plant response rating, Wheat (winter) [9, 27]: 70 | Wheat (winter) plant response rating (0 to 100 scale) ([9]; Rate 250 g/ha): 50 | Plant response rating, Wild oat [10, 29]: 60 | Plant response rating, Wild oat [10, 27]: 70 | Wild oat plant response rating (0 to 100 scale) ([10]; Rate 250 g/ha): 80 | Plant response rating, Barley (winter) [11, 29]: 70 | Plant response rating, Barley (winter) [11, 27]: 70 | Barley (winter) plant response rating (0 to 100 scale) ([11]; Rate 250 g/ha): 70
